Key:
Format in all cases: functional
Enterococcus [1] = assay: Antibacterial activity against vancomycin-resistant Enterococcus ATCC 51299 after overnight incubation by two-fold serial dilution method
Enterococcus [2] = assay: Antibacterial activity against vancomycin-resistant Enterococcus ATCC 29212 after overnight incubation by two-fold serial dilution method
Enterococcus faecalis [3] = assay: Antibacterial activity against vancomycin-resistant Enterococcus faecalis clinical isolate 5814 after overnight incubation by two-fold serial dilution method
Enterococcus faecalis [4] = assay: Antibacterial activity against vancomycin-resistant Enterococcus faecalis clinical isolate 7670 after overnight incubation by two-fold serial dilution method
Enterococcus faecalis [5] = assay: Antibacterial activity against vancomycin-resistant Enterococcus faecalis clinical isolate 22626 after overnight incubation by two-fold serial dilution method
Enterococcus faecalis [6] = assay: Antibacterial activity against vancomycin-resistant Enterococcus faecalis clinical isolate 7077 after overnight incubation by two-fold serial dilution method
Enterococcus faecalis [7] = assay: Antibacterial activity against vancomycin-resistant Enterococcus faecalis clinical isolate 7079 after overnight incubation by two-fold serial dilution method
Enterococcus faecalis [8] = assay: Antibacterial activity against vancomycin-resistant Enterococcus faecalis clinical isolate 7846 after overnight incubation by two-fold serial dilution method
Enterococcus faecalis [9] = assay: Antibacterial activity against vancomycin-resistant Enterococcus faecalis clinical isolate 21/235 after overnight incubation by two-fold serial dilution method
Enterococcus faecalis [10] = assay: Antibacterial activity against vancomycin-resistant Enterococcus faecalis clinical isolate 5642 after overnight incubation by two-fold serial dilution method
Enterococcus faecalis [11] = assay: Antibacterial activity against vancomycin-resistant Enterococcus faecalis clinical isolate 6093 after overnight incubation by two-fold serial dilution method
Enterococcus faecalis [12] = assay: Antibacterial activity against vancomycin-resistant Enterococcus faecalis clinical isolate 22/203 after overnight incubation by two-fold serial dilution method
Enterococcus faecalis [13] = assay: Antibacterial activity against vancomycin-resistant Enterococcus faecalis clinical isolate 387702 after overnight incubation by two-fold serial dilution method
Enterococcus faecalis [14] = assay: Antibacterial activity against vancomycin-resistant Enterococcus faecalis clinical isolate 27728 after overnight incubation by two-fold serial dilution method
Enterococcus faecalis [15] = assay: Antibacterial activity against vancomycin-resistant Enterococcus faecalis clinical isolate 5648 after overnight incubation by two-fold serial dilution method
Enterococcus faecium [16] = assay: Antibacterial activity against vancomycin-resistant Enterococcus faecium clinical isolate 17301 after overnight incubation by two-fold serial dilution method
Enterococcus faecium [17] = assay: Antibacterial activity against vancomycin-resistant Enterococcus faecium clinical isolate 7/27 after overnight incubation by two-fold serial dilution method
Enterococcus faecium [18] = assay: Antibacterial activity against vancomycin-resistant Enterococcus faecium clinical isolate 23/240 after overnight incubation by two-fold serial dilution method
Enterococcus faecium [19] = assay: Antibacterial activity against vancomycin-resistant Enterococcus faecium clinical isolate 10177 after overnight incubation by two-fold serial dilution method
Enterococcus faecium [20] = assay: Antibacterial activity against vancomycin-resistant Enterococcus faecium clinical isolate 28/211 after overnight incubation by two-fold serial dilution method
Enterococcus faecium [21] = assay: Antibacterial activity against vancomycin-resistant Enterococcus faecium clinical isolate 151495 after overnight incubation by two-fold serial dilution method
Enterococcus faecium [22] = assay: Antibacterial activity against vancomycin-resistant Enterococcus faecium clinical isolate 15/213 after overnight incubation by two-fold serial dilution method
Enterococcus faecium [23] = assay: Antibacterial activity against vancomycin-resistant Enterococcus faecium clinical isolate 14643 after overnight incubation by two-fold serial dilution method
Enterococcus faecium [24] = assay: Antibacterial activity against vancomycin-resistant Enterococcus faecium clinical isolate 5396 after overnight incubation by two-fold serial dilution method
Enterococcus faecium [25] = assay: Antibacterial activity against vancomycin-resistant Enterococcus faecium clinical isolate 31176 after overnight incubation by two-fold serial dilution method
Enterococcus faecium [26] = assay: Antibacterial activity against vancomycin-resistant Enterococcus faecium clinical isolate 31386 after overnight incubation by two-fold serial dilution method
Enterococcus faecium [27] = assay: Antibacterial activity against vancomycin-resistant Enterococcus faecium clinical isolate 3864 after overnight incubation by two-fold serial dilution method
Enterococcus faecium [28] = assay: Antibacterial activity against vancomycin-resistant Enterococcus faecium clinical isolate 27/16917 after overnight incubation by two-fold serial dilution method; conditions: isolate 27/1691
Enterococcus faecium [29] = assay: Antibacterial activity against vancomycin-resistant Enterococcus faecium clinical isolate 12875 after overnight incubation by two-fold serial dilution method
Enterococcus faecium [30] = assay: Antibacterial activity against vancomycin-resistant Enterococcus faecium clinical isolate 27/221 after overnight incubation by two-fold serial dilution method
Enterococcus faecium [31] = assay: Antibacterial activity against vancomycin-resistant Enterococcus faecium clinical isolate 8/224 after overnight incubation by two-fold serial dilution method
Enterococcus faecium [32] = assay: Antibacterial activity against vancomycin-resistant Enterococcus faecium clinical isolate 147969 after overnight incubation by two-fold serial dilution method
Enterococcus faecium [33] = assay: Antibacterial activity against vancomycin-resistant Enterococcus faecium clinical isolate 29/203 after overnight incubation by two-fold serial dilution method
Enterococcus faecium [34] = assay: Antibacterial activity against vancomycin-resistant Enterococcus faecium clinical isolate 30/48 after overnight incubation by two-fold serial dilution method
Enterococcus faecium [35] = assay: Antibacterial activity against vancomycin-resistant Enterococcus faecium clinical isolate 16475 after overnight incubation by two-fold serial dilution method
Enterococcus faecium [36] = assay: Antibacterial activity against vancomycin-resistant Enterococcus faecium clinical isolate 16115 after overnight incubation by two-fold serial dilution method
Enterococcus faecium [37] = assay: Antibacterial activity against vancomycin-resistant Enterococcus faecium clinical isolate 5484 after overnight incubation by two-fold serial dilution method
Enterococcus faecium [38] = assay: Antibacterial activity against vancomycin-resistant Enterococcus faecium clinical isolate 12/266 after overnight incubation by two-fold serial dilution method
Enterococcus faecium [39] = assay: Antibacterial activity against vancomycin-resistant Enterococcus faecium clinical isolate 6/22 after overnight incubation by two-fold serial dilution method
Enterococcus faecium [40] = assay: Antibacterial activity against vancomycin-resistant Enterococcus faecium clinical isolate 18906 after overnight incubation by two-fold serial dilution method
Enterococcus faecium [41] = assay: Antibacterial activity against vancomycin-resistant Enterococcus faecium clinical isolate 13246 after overnight incubation by two-fold serial dilution method

Measured: MIC

H-RWRLLLLLKRH-OH
25 µg/mL: all assays above

H-HWRLLLLKKH-OH
25 µg/mL: all assays above

Source: ChEMBL document CHEMBL3352237, “Synthesis and biological evaluation of novel peptide BF2 as an antibacterial agent against clinical isolates of vancomycin-resistant enterococci” (J Med Chem, 2014)
